Test [1] is described as follows: Inhibition of acetylcholine esterase (unknown origin) using acetylthiocholine as substrate incubated for 15 mins prior to substrate addition measured after 5 mins by spectrophotometry. Also noted: species or system Homo sapiens.
Test [2] has as its system Radical scavenging activity. Nature of the test: Antioxidant activity of the compound assessed as DPPH radical scavenging activity after 30 mins by spectrophotometry. The format is functional. (In general: Loss of DPPH colour is used to gauge radical scavenging.)
Test [3] in a line: Inhibition of urease (unknown origin) assessed as ammonia synthesis after 30 mins by microplate reader analysis. Set-up: species or system Homo sapiens.
Test [4] addresses Intestinal-type alkaline phosphatase (Bos taurus, UniProt P19111). Description: Inhibition of calf intestinal alkaline phosphatase using p-NPP as substrate incubated for 10 mins prior to substrate addition measured after 30 mins by spectrophotometry.
A further test has as its system Bacillus subtilis. Nature of the test: Antibacterial activity against Bacillus subtilis after 24 hrs by serial tube dilution method. The test is classed as functional.
Another test deals with Shigella flexneri. Description: Antibacterial activity against Shigella flexneri after 24 hrs by serial tube dilution method. The format is functional.
In a further test the test system is Staphylococcus aureus. Description: Antibacterial activity against Staphylococcus aureus after 24 hrs by serial tube dilution method. The test is classed as functional.
A further test relates to Escherichia coli. Description: Antibacterial activity against Escherichia coli after 24 hrs by serial tube dilution method. The test is classed as functional.

The values that follow come from ChEMBL document CHEMBL2375269, “Triazolothiadiazoles and triazolothiadiazines--biologically attractive scaffolds” (Eur J Med Chem, 2013).

A word on the IC50: it is the concentration that inhibits the measured activity by half. The term Ki denotes a measure of affinity in units of concentration, obtained from inhibition or displacement. By MIC is commonly meant the lowest concentration that inhibits growth of the organism. The low end stands for inhibition by little substance, the high end for a need for much substance.

≈ marks a conversion by molar mass, not a printed value.

Intestinal-type alkaline phosphatase, sequence (P19111 whole entry): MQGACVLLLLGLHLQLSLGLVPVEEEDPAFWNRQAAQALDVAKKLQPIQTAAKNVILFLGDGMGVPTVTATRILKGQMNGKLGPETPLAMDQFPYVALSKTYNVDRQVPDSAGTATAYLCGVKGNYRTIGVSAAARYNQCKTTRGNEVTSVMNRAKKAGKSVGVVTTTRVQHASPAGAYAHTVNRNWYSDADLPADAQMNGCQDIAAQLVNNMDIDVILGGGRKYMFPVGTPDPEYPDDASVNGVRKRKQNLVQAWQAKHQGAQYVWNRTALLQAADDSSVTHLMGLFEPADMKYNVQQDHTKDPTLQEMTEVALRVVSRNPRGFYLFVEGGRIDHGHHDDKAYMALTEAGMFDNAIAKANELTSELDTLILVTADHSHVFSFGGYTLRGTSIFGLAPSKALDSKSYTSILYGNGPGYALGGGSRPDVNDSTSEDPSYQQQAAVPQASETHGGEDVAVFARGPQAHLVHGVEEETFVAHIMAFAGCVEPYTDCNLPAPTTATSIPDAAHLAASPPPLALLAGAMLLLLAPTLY

As for `Fc1cccc(Cc2nnc3sc(-c4ccoc4)nn23)c1`, the IC50 in test [1] stood at 1.78 µM; in test [2], 31.5 µM.

Take `COc1ccc(-c2nnc3sc(-c4ccoc4)nn23)cc1`: in test [3], the IC50 was 0.764 µM and the inhibitory constant (Ki) stood at 0.45 µM. In addition, the IC50 in test [1] turned out to be 1.78 µM. Turning to `Brc1ccc(-c2nnc3sc(-c4ccoc4)nn23)cc1`, the figures for the IC50 in test [1] and in test [4] were 1.78 µM and 0.061 µM, respectively. For `Brc1cccc(-c2nnc3sc(-c4ccoc4)nn23)c1`, in test [1], the IC50 was found to be 0.344 µM. Take `Fc1cnc(-c2nn3c(-c4ccccc4Cl)nnc3s2)c(F)c1`: the minimum inhibitory concentration (MIC) against Bacillus subtilis, with Shigella flexneri, in the test on Staphylococcus aureus and against Escherichia coli was 0.156 mg/L (≈ 0.446 µM) in each case. On to `Clc1ccccc1-c1nnc2sc(-c3ccoc3)nn12`, for which the IC50 in test [1] came to 1.78 µM.

`Clc1ccc(-c2nnc3sc(-c4ccoc4)nn23)cc1` gave an IC50 in test [1] of 1.78 µM.

In test [1], `Fc1ccccc1Cc1nnc2sc(-c3ccoc3)nn12` came in with an IC50 of 1.78 µM. On the same count and under the same terms, to `Fc1ccc(Cc2nnc3sc(-c4ccoc4)nn23)cc1` belongs 1.78 µM; to `COc1ccccc1-c1nnc2sc(-c3ccoc3)nn12`, 1.78 µM.

In test [1], `COc1cccc(-c2nnc3sc(-c4ccoc4)nn23)c1` returned an IC50 of 1.78 µM. `COc1cccc(Cc2nnc3sc(-c4ccc(Cl)cc4)nn23)c1`: in test [2], the IC50 worked out at 9.04 µM. The same measure, in the same setting: to `CCCOC(=O)c1cc(O)c(O)c(O)c1` [PROPYL GALLATE] belongs 40.8 µM.
